From patent US11878975B2, “Substituted indole compounds useful as TLR inhibitors” (BRISTOL-MYERS SQUIBB COMPANY, priority 2017, dated 2024)

Tests used:
Assay type in all cases: cell-based
[1] = molecular target: T1, human TLR7 (Homo sapiens, UniProt Q9NYK1); experiment: TLR7 inhibition reporter assay (HEK-Blue cells, SEAP reporter, gardiquimod stimulation); conditions: HEK-Blue cells overexpressing human TLR7, SEAP reporter, gardiquimod 7.5 μM
T1 construct: host or cells: HEK-Blue cells
T1 sequence (Q9NYK1 27-1049): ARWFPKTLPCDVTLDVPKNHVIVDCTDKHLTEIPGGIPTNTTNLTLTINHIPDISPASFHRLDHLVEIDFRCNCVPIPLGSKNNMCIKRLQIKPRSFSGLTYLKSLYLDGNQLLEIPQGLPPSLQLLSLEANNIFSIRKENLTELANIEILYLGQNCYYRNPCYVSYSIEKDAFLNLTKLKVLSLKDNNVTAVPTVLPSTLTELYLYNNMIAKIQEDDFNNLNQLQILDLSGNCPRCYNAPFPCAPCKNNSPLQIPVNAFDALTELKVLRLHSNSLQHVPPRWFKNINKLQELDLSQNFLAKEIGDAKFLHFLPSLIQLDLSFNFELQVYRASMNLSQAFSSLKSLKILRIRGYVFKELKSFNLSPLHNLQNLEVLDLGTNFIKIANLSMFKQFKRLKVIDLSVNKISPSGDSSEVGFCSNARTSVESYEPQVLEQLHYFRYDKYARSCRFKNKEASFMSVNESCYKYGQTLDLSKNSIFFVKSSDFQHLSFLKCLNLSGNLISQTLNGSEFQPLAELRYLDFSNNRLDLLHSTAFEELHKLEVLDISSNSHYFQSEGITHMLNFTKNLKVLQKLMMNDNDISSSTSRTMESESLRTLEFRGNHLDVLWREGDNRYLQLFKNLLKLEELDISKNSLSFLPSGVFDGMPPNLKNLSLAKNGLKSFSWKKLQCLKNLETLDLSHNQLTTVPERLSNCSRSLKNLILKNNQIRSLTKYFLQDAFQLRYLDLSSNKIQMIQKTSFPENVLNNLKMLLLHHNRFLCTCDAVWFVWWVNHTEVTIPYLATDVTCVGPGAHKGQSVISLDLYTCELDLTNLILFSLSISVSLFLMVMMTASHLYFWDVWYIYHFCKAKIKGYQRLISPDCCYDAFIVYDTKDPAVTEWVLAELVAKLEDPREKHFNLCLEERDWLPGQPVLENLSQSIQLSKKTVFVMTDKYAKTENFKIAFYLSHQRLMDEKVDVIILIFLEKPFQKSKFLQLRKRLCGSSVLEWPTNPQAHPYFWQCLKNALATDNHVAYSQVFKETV
Method: (§1) TLR7/8/9 Inhibition Reporter Assays
(§2) HEK-Blue™-cells (Invivogen) overexpressing human TLR7, TLR8 or TLR9 receptors were used for screening inhibitors of these receptors using an inducible SEAP (secreted embryonic alkaline phosphatase) reporter gene under the control of the IFN-β minimal promoter fused to five NF-κB and AP-1-binding sites. Briefly, cells are seeded into Greiner 384 well plates (15000 cells per well for TLR7, 20,000 for TLR8 and 25,000 for TLR9) and then treated with test compounds in DMSO to yield a final dose response concentration range of 0.05 nM-50 μM. After a 30 minute compound pre-treatment al room temperature, the cells are then stimulated with a TLR7 ligand (gardiquimod at a final concentration of 7.5 μM), TLR8 ligand (R848 at a final concentration of 15.9 μM) or TLR9 ligand (ODN2006 at a final concentration of 5 nM) to activate NF-κB and AP-1 which induce the production of SEAP. After a 22 hour incubation at 37° C., 5% CO2, SEAP levels are determined with the addition of HEK-Blue™ Detection reagent (Invivogen), a cell culture medium that allows for detection of SEAP, according to manufacturer's specifications. The percent inhibition is determined as the % reduction in the HEK-Blue signal present in wells treated with agonist plus DMSO alone compared to wells treated with a known inhibitor.

[2] = molecular target: T2, human TLR8 (Homo sapiens, UniProt Q9NR97); experiment: TLR8 inhibition reporter assay (HEK-Blue cells, SEAP reporter, R848 stimulation); conditions: HEK-Blue cells overexpressing human TLR8, SEAP reporter, R848 15.9 μM
T2 construct: host or cells: HEK-Blue cells
T2 sequence (Q9NR97 27-1041): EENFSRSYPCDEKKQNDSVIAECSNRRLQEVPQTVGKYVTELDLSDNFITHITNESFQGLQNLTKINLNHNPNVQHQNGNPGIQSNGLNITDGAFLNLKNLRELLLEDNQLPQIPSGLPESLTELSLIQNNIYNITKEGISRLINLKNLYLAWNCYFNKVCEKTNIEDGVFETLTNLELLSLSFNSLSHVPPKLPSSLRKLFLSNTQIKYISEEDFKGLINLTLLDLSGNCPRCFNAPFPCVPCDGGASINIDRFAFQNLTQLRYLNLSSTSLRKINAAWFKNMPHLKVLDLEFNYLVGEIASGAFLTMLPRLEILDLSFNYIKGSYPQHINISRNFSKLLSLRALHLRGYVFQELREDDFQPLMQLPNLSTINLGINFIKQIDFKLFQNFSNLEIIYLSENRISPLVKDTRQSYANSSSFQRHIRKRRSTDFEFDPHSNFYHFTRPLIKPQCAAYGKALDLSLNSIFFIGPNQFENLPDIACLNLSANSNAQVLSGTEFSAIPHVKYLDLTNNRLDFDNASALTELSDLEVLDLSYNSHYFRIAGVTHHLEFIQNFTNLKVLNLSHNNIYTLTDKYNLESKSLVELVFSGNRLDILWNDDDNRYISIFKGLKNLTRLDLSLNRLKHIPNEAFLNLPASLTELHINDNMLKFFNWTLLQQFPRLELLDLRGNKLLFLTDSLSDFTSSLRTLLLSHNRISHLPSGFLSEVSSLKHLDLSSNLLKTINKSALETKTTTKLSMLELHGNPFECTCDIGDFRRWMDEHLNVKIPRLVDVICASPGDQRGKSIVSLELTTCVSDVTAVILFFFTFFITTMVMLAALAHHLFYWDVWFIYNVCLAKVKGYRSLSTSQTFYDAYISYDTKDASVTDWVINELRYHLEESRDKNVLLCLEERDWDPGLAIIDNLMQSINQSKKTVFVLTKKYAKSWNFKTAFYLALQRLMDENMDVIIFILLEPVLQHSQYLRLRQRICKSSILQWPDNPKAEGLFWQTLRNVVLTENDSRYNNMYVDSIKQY
Method: as §1, §2

[3] = molecular target: T3, human TLR9 (Homo sapiens, UniProt Q9NR96); experiment: TLR9 inhibition reporter assay (HEK-Blue cells, SEAP reporter, ODN2006 stimulation); conditions: HEK-Blue cells overexpressing human TLR9, SEAP reporter, ODN2006 5 nM
T3 construct: host or cells: HEK-Blue cells
T3 sequence (Q9NR96 26-1032): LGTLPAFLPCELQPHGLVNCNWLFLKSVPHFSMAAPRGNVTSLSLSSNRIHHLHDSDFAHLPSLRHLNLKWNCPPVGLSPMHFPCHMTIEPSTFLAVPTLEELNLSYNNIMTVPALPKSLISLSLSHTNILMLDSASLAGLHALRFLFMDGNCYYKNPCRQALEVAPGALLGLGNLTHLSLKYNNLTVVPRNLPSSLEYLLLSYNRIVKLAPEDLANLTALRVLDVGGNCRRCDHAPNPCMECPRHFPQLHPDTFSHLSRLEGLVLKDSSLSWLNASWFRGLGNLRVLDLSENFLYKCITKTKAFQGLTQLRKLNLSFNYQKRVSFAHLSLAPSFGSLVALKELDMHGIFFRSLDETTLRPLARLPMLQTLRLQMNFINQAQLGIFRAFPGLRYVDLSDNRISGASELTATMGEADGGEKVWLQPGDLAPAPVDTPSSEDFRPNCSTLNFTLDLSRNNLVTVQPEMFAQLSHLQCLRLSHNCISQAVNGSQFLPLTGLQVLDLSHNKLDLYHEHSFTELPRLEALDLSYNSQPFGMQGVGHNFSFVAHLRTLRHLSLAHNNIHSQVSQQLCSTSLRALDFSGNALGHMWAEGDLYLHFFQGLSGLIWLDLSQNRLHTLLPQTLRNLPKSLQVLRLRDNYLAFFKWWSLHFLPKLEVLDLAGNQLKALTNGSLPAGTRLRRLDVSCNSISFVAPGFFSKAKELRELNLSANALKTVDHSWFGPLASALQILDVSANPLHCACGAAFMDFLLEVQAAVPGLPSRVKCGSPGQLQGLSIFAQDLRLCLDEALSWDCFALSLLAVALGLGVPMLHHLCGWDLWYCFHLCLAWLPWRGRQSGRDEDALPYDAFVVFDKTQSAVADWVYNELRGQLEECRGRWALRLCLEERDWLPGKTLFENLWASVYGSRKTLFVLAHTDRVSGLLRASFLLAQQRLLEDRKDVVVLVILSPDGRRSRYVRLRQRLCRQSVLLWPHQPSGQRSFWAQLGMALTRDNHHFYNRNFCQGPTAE
Method: as §1, §2

Row | SMILES | IC50 [1] [nM] | IC50 [2] [nM] | IC50 [3] [nM]
1 | COc1cc(-c2[nH]c3ccc(C4CCC(N)CC4)cc3c2C(C)C)cn2ncnc12 (single isomer, unassigned) [Example 2, 4-(3-isopropyl-2-(8-methoxy-[1,2,4]triazolo[1,5-a]pyridin-6-yl)-1H-indol-5-yl) cyclohexanamine] | 0.37 | 1.1 | 3420
2 | Cc1cc(-c2[nH]c3ccc(C4CCC(N)CC4)cc3c2C(C)C)cn2ncnc12 (single isomer, unassigned) [Example 3] | 0.15 | 1 | 1290
3 | Cc1cc(-c2[nH]c3ccc(C4CCC(N)CC4)cc3c2C(C)C)cn2ncnc12 (single isomer, unassigned) [Example 4] | 6 | 45 | 3170
4 | COc1cc(-c2[nH]c3ccc(C4CCC(N(C)C(C)C)CC4)cc3c2C(C)C)cn2ncnc12 (single isomer, unassigned) [Example 7, N-isopropyl-4-(3-isopropyl-2-(8-methoxy-[1,2,4]triazolo[1,5-a]pyridin-6-yl)-1H-indol-5-yl)-N-methylcyclohexanamine] | 1 | 4.4 | 2000
5 | Cc1cc(-c2[nH]c3ccc(C4CCC(N(C)C5CC5)CC4)cc3c2C(C)C)cn2ncnc12 (single isomer, unassigned) [Example 9] | 0.36 | 1.8 | 1880
6 | Cc1cc(-c2[nH]c3ccc(C4CCC(NC5CC5)CC4)cc3c2C(C)C)cn2ncnc12 (single isomer, unassigned) [Example 15] | 4 | 8.9 | 3590
7 | Cc1cc(-c2[nH]c3ccc(C4CCC(NC5CC5)CC4)cc3c2C(C)C)cn2ncnc12 (single isomer, unassigned) [Example 16] | 0.15 | 0.47 | 661
8 | Cc1cc(-c2[nH]c3ccc(C4CCC(C)(O)CC4)cc3c2C(C)C)cc(C)n1 (single isomer, unassigned) [Example 170] | 13 | 590 | –
9 | COc1cc(-c2[nH]c3ccc(C4CCC(NC(=O)CNCC5COC(C)(C)O5)CC4)cc3c2C(C)C)cn2ncnc12 (stereo not shown) [Example 136] | – | 7.2 | 19200
10 | CN[C@H](C)C(=O)N1CCCC(c2ccc3[nH]c(-c4cc(C)nc(C)c4)c(C(C)C)c3c2)C1 (stereo partly shown) [Example 221] | – | 4.4 | 357
11 | Cc1c(-c2[nH]c3ccc(C4CC(NC5COC5)C4)cc3c2C(C)C)cn2ncnc2c1C (stereo not shown) [Example 576] | 23 | 7.4 | –

The remaining compounds from weak to strong by IC50 [2], led by results:

Row | IC50 [1] [nM] | IC50 [2] [nM] | IC50 [3] [nM] | SMILES
12 | 6 | 16 | 3690 | Cc1cc(-c2[nH]c3ccc(C4CCC(N(C)C5CC5)CC4)cc3c2C(C)C)cn2ncnc12 (single isomer, unassigned) [Example 8]
13 | 19 | 13 | – | Cc1c(-c2[nH]c3ccc(C4CNC4)cc3c2C(C)C)cn(C)c(=O)c1C [Example 486]
14 | 0.71 | 4.7 | – | CCN(CC)CC(=O)N1CCOC(c2ccc3[nH]c(-c4cc(OC)c5ncnn5c4)c(C(C)C)c3c2)C1 (stereo not shown) [Example 333]
15 | 4 | 4.5 | – | Cc1c(-c2[nH]c3ccc(C4CC(NCC#N)C4)cc3c2C(C)C)cn2ncnc2c1C (stereo not shown) [Example 577]
16 | 1 | 2.5 | – | COc1cc(-c2[nH]c3ccc(C4CCC(NC(=O)CN5CC(CO)(CO)C5)CC4)cc3c2C(C)C)cn2ncnc12 (stereo not shown) [Example 134]
17 | 0.49 | 1.3 | 793 | COc1cc(-c2[nH]c3ccc(C4CCC(N)CC4)cc3c2C(C)C)cn2ncnc12 (single isomer, unassigned) [Example 1, 4-(3-isopropyl-2-(8-methoxy-[1,2,4]triazolo[1,5-a]pyridin-6-yl)-1H-indol-5-yl) cyclohexanamine]
18 | 0.33 | 1 | 1210 | COc1cc(-c2[nH]c3ccc(C4CCC(N(C)C(C)C)CC4)cc3c2C(C)C)cn2ncnc12 (single isomer, unassigned) [Example 6, N-isopropyl-4-(3-isopropyl-2-(8-methoxy-[1,2,4]triazolo[1,5-a]pyridin-6-yl)-1H-indol-5-yl)-N-methylcyclohexanamine]
19 | 0.3 | 0.81 | 346 | COc1cc(-c2[nH]c3ccc(C4CCC(N5CC(O)C5)CC4)cc3c2C(C)C)cn2ncnc12 (single isomer, unassigned) [Example 20]
